# Laboratory results as given in ChEMBL document CHEMBL1201862, “PubChem BioAssay data set” (2004).
# The source made the active and inactive calls.
# What was measured:
# [1] = target: Ras and Rab interactor 1/Tyrosine-protein kinase ABL1 (Homo sapiens, UniProt P00519+Q13671); format: functional;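 further: biochemical TR-FRET dose-response test measuring inhibition of binding between Rin1 and Abl proteins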
# [2] = target: Potassium voltage-gated channel subfamily KQT member 2 (Rattus norvegicus, UniProt O88943); assay: blockers of KCNQ2 channel current – cell-based, automated electrophysiology, set II, rat KCNQ2, dose response (AID 588637); format: functional
# [3] = system: BJ; assay: BJ-TERT fibroblast viability loss – cell-based, RAS-independent, luminescence, dose response (AID 1933); format: functional; settings: Homo sapiens
# [4] = target: Beta-galactosidase (Escherichia coli, UniProt Q8VNN2); assay: PubChem AID 485352; format: functional
# [5] = system: BJ; assay: cells; format: functional, cell-based; settings: Homo sapiens
# [6] = target: T1, Type-1 angiotensin II receptor (Homo sapiens, UniProt P30556); assay: antagonism of angiotensin II type 1 receptor – cell-based, uHTS hits, selectivity assay for APJ receptor antagonist project, dose response (AID 463214); format: functional;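 further: antagonist potency against angiotensin II stimulated AT1 response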
# T1 sequence (P30556 whole entry): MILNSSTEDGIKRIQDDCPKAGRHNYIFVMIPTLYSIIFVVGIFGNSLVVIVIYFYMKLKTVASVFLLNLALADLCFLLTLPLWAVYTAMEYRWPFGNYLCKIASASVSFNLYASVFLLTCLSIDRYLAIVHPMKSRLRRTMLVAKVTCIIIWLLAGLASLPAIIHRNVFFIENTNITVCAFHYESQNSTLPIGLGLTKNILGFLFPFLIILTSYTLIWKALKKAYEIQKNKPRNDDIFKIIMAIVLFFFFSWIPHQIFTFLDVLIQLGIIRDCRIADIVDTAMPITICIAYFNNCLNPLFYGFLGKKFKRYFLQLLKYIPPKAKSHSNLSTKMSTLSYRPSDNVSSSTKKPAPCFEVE
# [7] = system: BJ; assay: BJ-TERT-LT-ST fibroblast viability loss – cell-based, RAS-independent, luminescence, dose response (AID 1935); format: functional; settings: Homo sapiens;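 further: BJ fibroblasts immortalized with TERT plus LT and ST oncogenes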
# [8] = DRD fibroblast viability loss – cell-based, non-viral oncogenic, luminescence, dose response (AID 1934); format: functional; settings: Homo sapiens
# [9] = target: Glucose-6-phosphate 1-dehydrogenase (Homo sapiens, UniProt P11413); assay: inhibition of Homo sapiens G6PD, dose series – biochemical, fluorescence, selectivity assay for P. falciparum G6PD inhibitor project, dose response (AID 504792); format: functional
# [10] = Luminescence Cell-Based Dose Retest to Confirm Inhibitors of Cancer Stem Cells. [Related pubchem assays (depositor defined):AID2717, AID2721]; format: functional; settings: Homo sapiens
# [11] = system: CHO; assay: CHO cell viability loss, potency – luminescence, cytotoxicity control for TLR9-MyD88 binding inhibitor project, dose response (AID 588339); format: functional, cell-based, hamster; settings: Cricetulus griseus;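 further: CHO cells stably coexpressing TLR9 and MyD88 fusions from primary screen; compound exposure lasted 48 hours before viability readout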
# [12] = target: T2, Replicative DNA helicase DnaB (Mycobacterium tuberculosis, UniProt P9WMR3); assay: DnaB intein splicing inhibitors, dose response, biochemical, cell-free fluorescence (AID 449749); format: functional
# T2 sequence (P9WMR3 whole entry): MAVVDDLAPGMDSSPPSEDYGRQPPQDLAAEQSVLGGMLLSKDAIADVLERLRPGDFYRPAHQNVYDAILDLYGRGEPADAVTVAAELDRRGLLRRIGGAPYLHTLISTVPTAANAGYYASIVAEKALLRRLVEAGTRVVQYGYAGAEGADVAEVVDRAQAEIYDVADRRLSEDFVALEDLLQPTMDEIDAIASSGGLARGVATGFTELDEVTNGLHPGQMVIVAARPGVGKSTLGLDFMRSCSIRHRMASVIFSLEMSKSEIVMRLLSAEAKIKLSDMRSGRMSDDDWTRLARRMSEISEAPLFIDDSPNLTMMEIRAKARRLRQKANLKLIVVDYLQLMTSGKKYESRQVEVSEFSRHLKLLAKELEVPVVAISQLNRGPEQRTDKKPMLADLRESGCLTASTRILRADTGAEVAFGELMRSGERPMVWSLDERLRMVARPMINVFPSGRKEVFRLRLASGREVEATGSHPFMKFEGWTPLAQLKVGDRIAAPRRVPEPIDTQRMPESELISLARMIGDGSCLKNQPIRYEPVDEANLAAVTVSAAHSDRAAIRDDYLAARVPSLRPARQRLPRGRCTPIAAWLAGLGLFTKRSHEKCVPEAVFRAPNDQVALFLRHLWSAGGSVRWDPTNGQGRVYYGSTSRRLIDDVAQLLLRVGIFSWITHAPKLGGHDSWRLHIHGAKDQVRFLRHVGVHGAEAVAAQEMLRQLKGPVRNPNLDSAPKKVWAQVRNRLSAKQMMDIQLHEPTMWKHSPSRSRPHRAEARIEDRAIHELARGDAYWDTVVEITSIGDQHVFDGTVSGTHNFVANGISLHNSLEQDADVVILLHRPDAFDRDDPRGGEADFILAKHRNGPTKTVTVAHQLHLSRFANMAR
# [13] = target: T3, Protein RecA (Mycobacterium tuberculosis, UniProt P9WHJ3); assay: Fluorescence Cell-Free Homogeneous Dose Retest to Identify Inhibitors of RecA-Intein Splicing Activity. [Related pubchem assays (depositor defined):AID2097, AID2223, AID489010, AID492950]; format: functional
# T3 sequence (P9WHJ3 whole entry): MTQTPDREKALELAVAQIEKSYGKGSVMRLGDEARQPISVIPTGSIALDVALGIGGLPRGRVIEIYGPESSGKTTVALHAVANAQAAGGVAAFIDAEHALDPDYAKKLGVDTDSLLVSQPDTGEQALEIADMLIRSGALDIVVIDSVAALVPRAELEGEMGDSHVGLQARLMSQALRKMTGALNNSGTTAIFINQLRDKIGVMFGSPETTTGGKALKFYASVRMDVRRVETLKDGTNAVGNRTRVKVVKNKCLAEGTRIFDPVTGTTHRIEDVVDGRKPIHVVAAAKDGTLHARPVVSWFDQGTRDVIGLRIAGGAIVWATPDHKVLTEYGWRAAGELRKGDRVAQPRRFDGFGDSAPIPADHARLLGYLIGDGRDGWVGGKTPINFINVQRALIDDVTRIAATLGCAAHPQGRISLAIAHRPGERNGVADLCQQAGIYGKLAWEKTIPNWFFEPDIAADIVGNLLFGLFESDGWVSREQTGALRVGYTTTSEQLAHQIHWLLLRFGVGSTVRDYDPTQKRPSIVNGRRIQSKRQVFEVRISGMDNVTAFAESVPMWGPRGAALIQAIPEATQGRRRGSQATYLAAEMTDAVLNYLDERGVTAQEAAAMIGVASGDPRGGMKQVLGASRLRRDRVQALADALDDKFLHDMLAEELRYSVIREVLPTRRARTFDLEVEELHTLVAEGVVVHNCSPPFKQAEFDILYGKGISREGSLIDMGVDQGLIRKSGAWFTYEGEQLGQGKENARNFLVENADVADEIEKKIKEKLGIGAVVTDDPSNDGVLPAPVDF
# [14] = target: Beta Lactamase (Pseudomonas aeruginosa, UniProt Q932Y6); assay: BLA reporter interference, concentration series – BLA reporter cells, FRET fluorescence, artefact control for TLR9-MyD88 binding inhibitor project, dose response (AID 588341); format: cell-based;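 further: cell based assay in CHO-K1 cells stably expressing beta-lactamase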
# [15] = reduction of Shn3 3'UTR-driven luciferase in osteoblasts – cell-based, Clone20 osteoblasts, firefly luciferase, cherry-picked, dose response (AID 624132); format: functional;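 further: firefly luciferase luminescence from reporter carrying the Shn3 3'UTR in osteoblasts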
# [16] = loss of viability in HepG2 cells – cell-based, CellTiter-Glo, cherry-picked, cytotoxicity control for Shn3 inhibitor project, dose response (AID 624134); format: functional
# [17] = non-specific 3'UTR reporter inhibition in Clone20-Shn3RL – cell-based, Renilla luciferase, cherry-picked, counter-screen for Shn3 inhibitor project, dose response (AID 624133); format: functional
# [18] = target: T4, Fatty acid synthase (Homo sapiens, UniProt P49327); assay: inhibition of human FAS-TE enzyme activity – biochemical, endpoint fluorescence intensity, uHTS hits, dose response (AID 624327); format: functional;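 further: fluorescence from hydrolysis of an O-methyl fluorescein acyl ester substrate by the enzyme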
# [19] = target: T5, Sentrin-specific protease 8 (Homo sapiens, UniProt Q96LD8); format: functional
# T5 sequence (Q96LD8 whole entry): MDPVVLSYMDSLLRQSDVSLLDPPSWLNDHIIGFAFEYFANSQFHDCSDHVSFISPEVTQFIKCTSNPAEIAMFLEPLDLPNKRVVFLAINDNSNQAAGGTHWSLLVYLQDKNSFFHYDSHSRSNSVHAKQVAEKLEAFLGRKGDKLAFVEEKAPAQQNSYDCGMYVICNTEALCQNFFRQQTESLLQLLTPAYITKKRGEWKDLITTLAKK
# [20] = target: T5, Sentrin-specific protease 8; format: functional; remark: listed apart in the source
# [21] = target: T4, Fatty acid synthase; assay: inhibition of human FAS-TE enzyme activity – biochemical, kinetic fluorescence intensity, dose response (AID 624326); format: functional;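 further: rate of fluorescence rise from hydrolysis of a fluorogenic O-methyl fluorescein ester substrate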
# [22] = viability loss in THP-1 monocytes – THP-1 cells, cytotoxicity control for Vif-APOBEC3G degradation inhibitor project, dose response (AID 1117359); format: functional; settings: THP-1
# [23] = target: Cytochrome P450 2D6 (Homo sapiens, UniProt P10635);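 further: CYP2D6 member of a cytochrome P450 panel assay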
# [24] = target: Cytochrome P450 3A4 (Homo sapiens, UniProt P08684);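 further: CYP3A4 tested as one member of a cytochrome P450 panel screen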
# [25] = luciferase reporter signal suppression in cells – H4 neuroglioma cells, luminescence, dose response (AID 1990); format: functional, cell-based
# [26] = system: HeLa; assay: Cytotoxicity counterscreen assay for transcriptional activators of heat shock protein 70 (Hsp70). [Related pubchem assays: 1203, 1252 ]; format: functional; settings: Homo sapiens;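 further: cells exposed to compound for 16 hours before readout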
# [27] = Luminescence Cell-Based Dose Response HTS to Identify Inhibitors of 5'UTR Stem-Loop Driven Prion Protein mRNA Translation in H4 Neuroglioblastoma Cells. [Related pubchem assays: 1827 (Project Summary), 1813 (Primary HTS)]; format: functional
# [28] = alpha-synuclein stem-loop luciferase translation blockers – H4 neuroglioma cells, luminescence, confirmation (AID 1988); format: functional, cell-based
# [29] = Trypanosoma cruzi growth suppression in host cells – NIH3T3 host cells, beta-gal luminescence, confirmation (AID 2044); format: functional, cell-based;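 further: intracellular parasites grown in NIH/3T3 mouse fibroblasts as host cells; luminescent beta-galactosidase reporter signal from transgenic T. cruzi replicating inside host cells; inhibitors lower the luminescence signal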
# [30] = NIH3T3 cell viability loss – ATP luminescence, mouse fibroblasts, counter-screen, dose response (AID 2010); format: functional, cell-based;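 further: cells exposed to compound for about 90 hours before reading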
# [31] = target: Protein kinase C theta type (Homo sapiens, UniProt Q04759); assay: Navigating the Kinome. Panel member name: PRKCQ; format: functional
# [32] = target: Ribosomal protein S6 kinase alpha-3 (Homo sapiens, UniProt P51812); format: functional;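 further: measured within a kinome-wide profiling panel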
# [33] = target: Fibroblast growth factor receptor 1 (Homo sapiens, UniProt P11362); format: functional
# [34] = target: Mitogen-activated protein kinase 9 (Homo sapiens, UniProt P45984); format: functional;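 further: value from a kinome panel profiling assay, MAPK9 panel entry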
# [35] = target: High affinity nerve growth factor receptor (Homo sapiens, UniProt P04629); format: functional;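 further: NTRK1 tested as one member of a kinome-wide profiling panel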
# [36] = target: Activated CDC42 kinase 1 (Homo sapiens, UniProt Q07912); assay: Navigating the Kinome. Panel member name: ACK1; format: functional
# [37] = target: Insulin-like growth factor 1 receptor (Homo sapiens, UniProt P08069); assay: Navigating the Kinome. Panel member name: IGF1R; format: functional
# [38] = target: T6, cAMP-dependent protein kinase catalytic subunit PRKX (Homo sapiens, UniProt P51817); format: functional
# T6 sequence (P51817 whole entry): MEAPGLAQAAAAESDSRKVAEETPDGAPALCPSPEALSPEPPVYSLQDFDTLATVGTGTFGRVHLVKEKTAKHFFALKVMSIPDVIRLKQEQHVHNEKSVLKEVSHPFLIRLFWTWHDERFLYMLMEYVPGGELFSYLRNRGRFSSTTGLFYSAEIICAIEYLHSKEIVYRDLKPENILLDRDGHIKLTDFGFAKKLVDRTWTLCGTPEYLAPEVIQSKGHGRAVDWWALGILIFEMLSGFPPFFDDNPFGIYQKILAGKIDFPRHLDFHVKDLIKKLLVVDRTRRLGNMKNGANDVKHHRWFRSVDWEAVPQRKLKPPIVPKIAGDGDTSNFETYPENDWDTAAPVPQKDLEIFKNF
# [39] = target: Dual specificity protein kinase CLK4 (Homo sapiens, UniProt Q9HAZ1); format: functional
# [40] = target: Dual specificity mitogen-activated protein kinase kinase 2 (Homo sapiens, UniProt P36507); assay: Navigating the Kinome. Panel member name: MAP2K2; format: functional
# [41] = target: Leukocyte tyrosine kinase receptor (Homo sapiens, UniProt P29376); assay: Navigating the Kinome. Panel member name: LTK; format: functional
# T4 sequence (P49327 whole entry): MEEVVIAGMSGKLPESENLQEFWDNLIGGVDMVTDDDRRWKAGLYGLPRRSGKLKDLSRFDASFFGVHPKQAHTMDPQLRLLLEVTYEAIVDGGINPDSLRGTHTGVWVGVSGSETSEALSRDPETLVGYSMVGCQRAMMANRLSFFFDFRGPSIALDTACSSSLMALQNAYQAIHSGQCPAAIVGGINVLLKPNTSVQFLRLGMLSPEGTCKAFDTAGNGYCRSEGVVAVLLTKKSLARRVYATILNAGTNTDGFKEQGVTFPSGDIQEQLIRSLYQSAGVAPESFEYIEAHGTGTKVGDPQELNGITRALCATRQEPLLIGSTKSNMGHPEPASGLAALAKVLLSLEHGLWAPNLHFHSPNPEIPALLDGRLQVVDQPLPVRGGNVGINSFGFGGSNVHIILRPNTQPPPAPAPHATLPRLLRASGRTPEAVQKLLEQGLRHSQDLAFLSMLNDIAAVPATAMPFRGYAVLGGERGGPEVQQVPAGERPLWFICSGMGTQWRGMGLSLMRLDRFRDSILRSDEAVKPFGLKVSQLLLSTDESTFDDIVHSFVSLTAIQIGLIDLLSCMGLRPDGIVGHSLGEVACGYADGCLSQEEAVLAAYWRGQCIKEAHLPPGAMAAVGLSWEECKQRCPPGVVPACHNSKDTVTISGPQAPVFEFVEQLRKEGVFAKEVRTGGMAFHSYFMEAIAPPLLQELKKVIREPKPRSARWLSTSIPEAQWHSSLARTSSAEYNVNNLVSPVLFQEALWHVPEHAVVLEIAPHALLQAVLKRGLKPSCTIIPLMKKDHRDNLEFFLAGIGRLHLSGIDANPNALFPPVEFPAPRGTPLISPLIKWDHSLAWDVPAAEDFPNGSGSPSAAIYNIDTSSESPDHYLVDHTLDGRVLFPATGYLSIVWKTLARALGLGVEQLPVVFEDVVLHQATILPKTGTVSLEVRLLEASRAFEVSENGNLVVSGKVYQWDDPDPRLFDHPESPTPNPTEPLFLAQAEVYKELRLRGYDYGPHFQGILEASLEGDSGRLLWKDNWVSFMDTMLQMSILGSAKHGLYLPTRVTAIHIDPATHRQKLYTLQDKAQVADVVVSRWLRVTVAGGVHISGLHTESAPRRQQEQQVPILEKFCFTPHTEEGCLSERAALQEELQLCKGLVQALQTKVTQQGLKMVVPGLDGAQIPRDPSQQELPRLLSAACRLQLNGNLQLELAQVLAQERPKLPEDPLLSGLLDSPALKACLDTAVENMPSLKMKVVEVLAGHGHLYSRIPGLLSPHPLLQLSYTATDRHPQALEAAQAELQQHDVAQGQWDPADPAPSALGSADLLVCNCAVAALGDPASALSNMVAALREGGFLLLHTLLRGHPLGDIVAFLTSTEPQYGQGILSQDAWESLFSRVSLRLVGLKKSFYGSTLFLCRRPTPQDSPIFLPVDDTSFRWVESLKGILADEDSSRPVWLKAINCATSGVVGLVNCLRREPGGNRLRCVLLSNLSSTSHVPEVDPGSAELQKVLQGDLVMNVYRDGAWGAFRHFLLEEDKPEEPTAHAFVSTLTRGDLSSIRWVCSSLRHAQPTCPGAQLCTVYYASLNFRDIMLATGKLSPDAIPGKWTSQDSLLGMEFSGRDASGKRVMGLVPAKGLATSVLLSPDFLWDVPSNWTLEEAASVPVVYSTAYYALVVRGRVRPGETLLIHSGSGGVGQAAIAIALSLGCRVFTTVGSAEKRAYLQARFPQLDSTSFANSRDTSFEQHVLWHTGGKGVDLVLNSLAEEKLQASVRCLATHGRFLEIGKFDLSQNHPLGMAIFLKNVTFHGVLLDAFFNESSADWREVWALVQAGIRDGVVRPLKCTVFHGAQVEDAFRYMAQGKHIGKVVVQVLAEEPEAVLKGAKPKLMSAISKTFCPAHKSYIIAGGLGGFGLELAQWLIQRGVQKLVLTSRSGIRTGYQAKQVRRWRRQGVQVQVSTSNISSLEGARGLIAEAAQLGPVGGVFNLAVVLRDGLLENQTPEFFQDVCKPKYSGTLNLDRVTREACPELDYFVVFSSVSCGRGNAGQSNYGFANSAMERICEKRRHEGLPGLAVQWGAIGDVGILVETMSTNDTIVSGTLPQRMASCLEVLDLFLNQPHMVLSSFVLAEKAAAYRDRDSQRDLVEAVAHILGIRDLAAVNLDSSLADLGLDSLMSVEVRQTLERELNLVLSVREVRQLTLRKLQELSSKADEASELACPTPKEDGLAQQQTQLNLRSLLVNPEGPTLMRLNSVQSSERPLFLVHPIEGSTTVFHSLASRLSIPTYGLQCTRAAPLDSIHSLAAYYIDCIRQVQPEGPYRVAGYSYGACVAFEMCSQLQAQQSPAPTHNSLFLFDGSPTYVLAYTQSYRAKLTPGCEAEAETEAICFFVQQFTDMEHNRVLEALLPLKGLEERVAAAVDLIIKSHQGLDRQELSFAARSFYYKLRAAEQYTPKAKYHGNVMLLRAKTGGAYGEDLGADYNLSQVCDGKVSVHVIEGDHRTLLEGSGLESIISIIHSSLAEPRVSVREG
# Sequence of Beta Lactamase (Q932Y6 whole entry): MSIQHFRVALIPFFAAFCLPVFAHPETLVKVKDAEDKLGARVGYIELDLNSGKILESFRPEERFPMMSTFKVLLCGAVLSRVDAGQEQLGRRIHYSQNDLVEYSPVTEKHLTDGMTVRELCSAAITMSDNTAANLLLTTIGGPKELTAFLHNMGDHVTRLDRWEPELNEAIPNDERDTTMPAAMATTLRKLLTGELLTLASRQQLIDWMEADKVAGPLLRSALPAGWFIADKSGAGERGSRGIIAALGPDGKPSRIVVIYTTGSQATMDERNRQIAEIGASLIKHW
# Sequence of Insulin-like growth factor 1 receptor (P08069 31-736 limits assumed): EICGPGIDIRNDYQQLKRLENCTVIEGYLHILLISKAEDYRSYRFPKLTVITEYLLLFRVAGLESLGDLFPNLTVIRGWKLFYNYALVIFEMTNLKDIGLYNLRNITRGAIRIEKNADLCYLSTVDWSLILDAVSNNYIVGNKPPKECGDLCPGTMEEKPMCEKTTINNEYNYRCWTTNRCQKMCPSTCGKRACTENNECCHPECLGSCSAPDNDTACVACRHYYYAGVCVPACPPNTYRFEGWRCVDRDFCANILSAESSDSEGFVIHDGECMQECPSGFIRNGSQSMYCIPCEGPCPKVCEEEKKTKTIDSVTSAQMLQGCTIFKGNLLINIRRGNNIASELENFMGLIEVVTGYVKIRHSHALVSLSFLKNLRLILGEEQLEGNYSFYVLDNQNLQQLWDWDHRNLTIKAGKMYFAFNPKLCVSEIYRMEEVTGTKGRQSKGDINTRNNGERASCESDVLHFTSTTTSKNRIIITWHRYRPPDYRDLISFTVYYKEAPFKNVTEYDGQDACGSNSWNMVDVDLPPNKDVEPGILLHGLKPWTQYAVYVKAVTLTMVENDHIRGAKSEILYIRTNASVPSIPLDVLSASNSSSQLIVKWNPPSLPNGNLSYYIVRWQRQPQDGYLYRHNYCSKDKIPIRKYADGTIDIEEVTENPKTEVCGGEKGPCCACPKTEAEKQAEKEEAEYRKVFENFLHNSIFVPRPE
# Sequence of Insulin-like growth factor 1 receptor (P08069 741-1367 limits assumed): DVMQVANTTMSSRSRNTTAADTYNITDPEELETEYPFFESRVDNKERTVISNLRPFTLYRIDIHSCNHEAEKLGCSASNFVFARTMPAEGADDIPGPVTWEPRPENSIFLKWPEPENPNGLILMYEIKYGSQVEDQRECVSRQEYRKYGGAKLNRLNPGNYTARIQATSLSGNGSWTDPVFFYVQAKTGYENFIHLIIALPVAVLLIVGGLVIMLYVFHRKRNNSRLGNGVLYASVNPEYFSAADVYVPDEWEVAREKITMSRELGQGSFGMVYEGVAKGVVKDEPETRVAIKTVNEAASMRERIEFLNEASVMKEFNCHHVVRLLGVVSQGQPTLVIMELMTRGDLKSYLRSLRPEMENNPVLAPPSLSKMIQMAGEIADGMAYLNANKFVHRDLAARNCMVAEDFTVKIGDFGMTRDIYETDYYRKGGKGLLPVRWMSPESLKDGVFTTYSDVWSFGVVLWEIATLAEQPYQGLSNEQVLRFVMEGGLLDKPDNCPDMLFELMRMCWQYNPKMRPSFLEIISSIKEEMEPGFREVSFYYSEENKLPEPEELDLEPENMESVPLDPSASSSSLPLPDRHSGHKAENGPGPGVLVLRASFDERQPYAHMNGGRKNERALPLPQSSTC
# Sequence of Mitogen-activated protein kinase 9 (P45984 whole entry): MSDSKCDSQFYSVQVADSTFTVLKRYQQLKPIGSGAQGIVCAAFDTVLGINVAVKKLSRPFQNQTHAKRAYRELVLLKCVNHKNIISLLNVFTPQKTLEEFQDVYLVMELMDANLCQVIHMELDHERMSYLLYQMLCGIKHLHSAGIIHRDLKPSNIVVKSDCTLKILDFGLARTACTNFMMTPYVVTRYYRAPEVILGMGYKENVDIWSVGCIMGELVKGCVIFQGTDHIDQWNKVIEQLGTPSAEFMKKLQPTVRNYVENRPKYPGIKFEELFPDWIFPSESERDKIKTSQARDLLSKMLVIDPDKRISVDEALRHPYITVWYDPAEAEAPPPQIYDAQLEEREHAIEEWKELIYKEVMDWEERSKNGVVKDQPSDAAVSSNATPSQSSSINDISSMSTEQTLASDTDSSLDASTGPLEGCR
# Sequence of Dual specificity protein kinase CLK4 (Q9HAZ1 whole entry): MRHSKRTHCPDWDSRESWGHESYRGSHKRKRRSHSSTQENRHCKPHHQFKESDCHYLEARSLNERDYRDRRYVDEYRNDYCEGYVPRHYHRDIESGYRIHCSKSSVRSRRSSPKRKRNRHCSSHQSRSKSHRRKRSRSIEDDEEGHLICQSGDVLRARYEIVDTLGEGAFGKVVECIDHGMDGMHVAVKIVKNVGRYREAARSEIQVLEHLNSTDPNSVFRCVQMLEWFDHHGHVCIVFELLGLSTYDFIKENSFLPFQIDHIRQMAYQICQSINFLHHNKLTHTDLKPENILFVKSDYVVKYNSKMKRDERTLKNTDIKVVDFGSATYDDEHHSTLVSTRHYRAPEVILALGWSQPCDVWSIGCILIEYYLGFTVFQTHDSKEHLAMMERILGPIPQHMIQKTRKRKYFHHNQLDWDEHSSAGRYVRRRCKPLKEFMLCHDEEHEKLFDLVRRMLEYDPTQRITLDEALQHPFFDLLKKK
compound,measurement,setting,value
CC1(c2nnc(-c3ccncc3)o2)CC(c2ccc(F)cc2)=NO1 (configuration not stated),IC50,[1],10.8 µM (inactive)
Cc1ccc(-c2cc(C(=O)N3CC(C)OC(C)C3)c3ccccc3n2)o1 (configuration not stated),IC50,[2],0.61 µM (active)
CN(CCO)c1cc(Sc2nc3ccccc3s2)c2nonc2c1[N+](=O)[O-],EC50,[3],1.96 µM (active)
same,EC50,[4],> 40 µM (inactive)
same,EC50,[5],4.12 µM (active)
same,IC50,[6],2.08 µM (active)
same,EC50,[7],4.95 µM (inconclusive)
same,EC50,[8],5.92 µM (active)
same,IC50,[9],> 80 µM (inactive)
same,AC50,[10],1.62 µM (active)
same,IC50,[11],1.69 µM (active)
same,AC50,[12],1.26 µM (active)
same,EC50,[13],0.49 µM (active)
same,IC50,[14],8.89 µM (active)
same,AC50,[15],1.55 µM (active)
same,AC50,[16],29.3 µM (active)
same,AC50,[17],8.18 µM (active)
same,IC50,[18],2.32 µM (active)
same,IC50,[19],28.1 µM (active)
same,IC50,[20],18.8 µM (active)
same,IC50,[21],2.14 µM (active)
same,CC50,[22],> 40 µM (active)
same,AC50,[23],22.4 µM (inconclusive)
same,AC50,[24],22.4 µM (inconclusive)
O=Cc1s/c(=N\S(=O)(=O)c2ccccc2)n(CCCCl)c1Cl,EC50,[25],> 60 µM (not active)
same,CC50,[26],> 3.67 µM (not active)
same,EC50,[27],> 120 µM (not active)
same,EC50,[28],9.57 µM (active)
same,EC50,[29],1.39 µM (active)
same,EC50,[30],2.82 µM (active)
same,IC50,[11],1.03 µM (active)
same,AC50,[12],4.19 µM (active)
same,EC50,[13],34.9 µM (active)
same,IC50,[14],19.5 µM (inactive)
same,IC50,[18],6.11 µM (active)
same,IC50,[21],3.15 µM (active)
Nc1nccc2nc(-c3ccccc3)cn12,Ki,[31],50.1 µM (active)
same,Ki,[32],50.1 µM (active)
same,Ki,[33],79.4 µM (active)
same,Ki,[34],100 µM (active)
same,Ki,[35],31.6 µM (active)
same,Ki,[36],15.8 µM (active)
same,Ki,[37],39.8 µM (active)
same,Ki,[38],79.4 µM (active)
same,Ki,[39],79.4 µM (active)
same,Ki,[40],79.4 µM (active)
same,Ki,[41],50.1 µM (active)
